PubChem BioAssay AID1963875 (Molecular Pharmacology Branch, DTP, NCI, 2024)

System: KRAS-mutant PDC complex spheroid viability
Assay: Anticancer human tumor 186277-243-T-J2-PDC patient-derived colon adenocarcinoma cell line growth inhibition [KRAS2]
Details: for IC50: curve of first compound; for viability, T/C: stronger effect = lower value
Summary of the method: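 KRAS-mutant tumor cells were grown as spheroids with HUVEC endothelial cells and human MSCs as stroma. Targeted agents were tested alone and with KRAS pathway inhibitors. Doses started at or near clinical Cmax, or 10 microM, descending half-log.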

[1] = second compound 0.1 µM, first compound 0.000316 µM
[2] = second compound 0.1 µM, first compound 0.001 µM
[3] = second compound 0.1 µM, first compound 0.00316 µM
[4] = second compound 0.1 µM, first compound 0.01 µM
[5] = second compound 0.1 µM, first compound 0.0316 µM
[6] = second compound 0.316 µM, first compound 0.000316 µM
[7] = second compound 0.316 µM, first compound 0.001 µM
[8] = second compound 0.316 µM, first compound 0.00316 µM
[9] = second compound 0.316 µM, first compound 0.01 µM
[10] = second compound 0.316 µM, first compound 0.0316 µM
[11] = second compound 1 µM, first compound 0.000316 µM
[12] = second compound 1 µM, first compound 0.001 µM
[13] = second compound 1 µM, first compound 0.00316 µM
[14] = second compound 1 µM, first compound 0.01 µM
[15] = second compound 1 µM, first compound 0.0316 µM
[16] = second compound 3.16 µM, first compound 0.000316 µM
[17] = second compound 3.16 µM, first compound 0.001 µM
[18] = second compound 3.16 µM, first compound 0.00316 µM
[19] = second compound 3.16 µM, first compound 0.01 µM
[20] = second compound 3.16 µM, first compound 0.0316 µM
[21] = second compound 10 µM, first compound 0.000316 µM
[22] = second compound 10 µM, first compound 0.001 µM
[23] = second compound 10 µM, first compound 0.00316 µM
[24] = second compound 10 µM, first compound 0.01 µM
[25] = second compound 10 µM, first compound 0.0316 µM
[26] = second compound 0.1 µM, first compound 0.1 µM
[27] = second compound 0.316 µM, first compound 0.1 µM
[28] = second compound 1 µM, first compound 0.1 µM
[29] = second compound 3.16 µM, first compound 0.1 µM
[30] = second compound 10 µM, first compound 0.1 µM
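For viability, T/C in this document: viability read after seven days of compound exposure; 100% = DMSO vehicle-treated spheroids so lower means less viable.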

`CC(=O)Nc1cccc(-n2c(=O)n(C3CC3)c(=O)c3c(Nc4ccc(I)cc4F)n(C)c(=O)c(C)c32)c1` + CNCc1ccccc1-c1csc(C(C)Nc2nc(C)nc3cc(OC)c(OC)cc23)c1 was tested, and the IC50 (second compound 0.1 µM) was 0.52 nM, the IC50 (second compound 0.316 µM) was 0.302 nM and the IC50 (second compound 1 µM) was 0.245 nM. For the same molecule, the IC50 (second compound 3.16 µM) was < 0.1 nM, the IC50 (second compound 10 µM) was < 0.1 nM and the viability, T/C (second compound 0.1 µM, first compound 0.0001 µM) was 109%. It also gave a viability, T/C [1] of 75.5%, a viability, T/C [2] of 16.4% and a viability, T/C [3] of 4.46%. The viability, T/C [4] was 2.28%, the viability, T/C [5] was 1.31% and the viability, T/C (second compound 0.316 µM, first compound 0.0001 µM) was 103%. For the same molecule, the viability, T/C [6] was 47.9%, the viability, T/C [7] was 10.8% and the viability, T/C [8] was 3.37%. For the same molecule, the viability, T/C [9] was 1.77%, the viability, T/C [10] was 1.09% and the viability, T/C (second compound 1 µM, first compound 0.0001 µM) was 115%. It also gave a viability, T/C [11] of 31.3%, a viability, T/C [12] of 6.94% and a viability, T/C [13] of 1.83%. The viability, T/C [14] was 1.15%, the viability, T/C [15] was 0.51% and the viability, T/C (second compound 3.16 µM, first compound 0.0001 µM) was 40.6%. It also gave a viability, T/C [16] of 0.37%, a viability, T/C [17] of 0.04% and a viability, T/C [18] of 0.02%. For the same molecule, the viability, T/C [19] was 0.02%, the viability, T/C [20] was 0.11% and the viability, T/C (second compound 10 µM, first compound 0.0001 µM) was 0.14%. The viability, T/C [21] was 0.11%, the viability, T/C [22] was 0.1% and the viability, T/C [23] was 0.1%. For the same molecule, the viability, T/C [24] was 0.11% and the viability, T/C [25] was 0.18%.
`CC(C)n1nc(-c2ccc3oc(N)nc3c2)c2c(N)ncnc21` + CNCc1ccccc1-c1csc(C(C)Nc2nc(C)nc3cc(OC)c(OC)cc23)c1 showed an IC50 (second compound 0.1 µM) of 5.68 nM, an IC50 (second compound 0.316 µM) of 4.02 nM and an IC50 (second compound 1 µM) of 5.06 nM. The IC50 (second compound 3.16 µM) was 1.17 nM, the IC50 (second compound 10 µM) was < 0.316 nM and the viability, T/C [1] was 108%. It also gave a viability, T/C [2] of 92.5%, a viability, T/C [3] of 57% and a viability, T/C [4] of 40.3%. The viability, T/C [5] was 28.6%, the viability, T/C [26] was 16.6% and the viability, T/C [6] was 98.8%. It also gave a viability, T/C [7] of 80.8%, a viability, T/C [8] of 54.7% and a viability, T/C [9] of 32.9%. The viability, T/C [10] was 23.4%, the viability, T/C [27] was 19.7% and the viability, T/C [11] was 96.3%. For the same molecule, the viability, T/C [12] was 88.8%, the viability, T/C [13] was 55.8% and the viability, T/C [14] was 37.7%. It also gave a viability, T/C [15] of 22.9%, a viability, T/C [28] of 14.9% and a viability, T/C [16] of 63.9%. It also gave a viability, T/C [17] of 55.9%, a viability, T/C [18] of 14% and a viability, T/C [19] of 16.8%. The viability, T/C [20] was 8.24%, the viability, T/C [29] was 1.61% and the viability, T/C [21] was 0.14%. For the same molecule, the viability, T/C [22] was 0.13%, the viability, T/C [23] was 0.11% and the viability, T/C [24] was 0.1%. For the same molecule, the viability, T/C [25] was 0.1% and the viability, T/C [30] was 0.16%.
Molecule `CC1(C)CCC(CN2CCN(c3ccc(C(=O)NS(=O)(=O)c4ccc(NCC5CCOCC5)c([N+](=O)[O-])c4)c(Oc4cnc5[nH]ccc5c4)c3)CC2)=C(c2ccc(Cl)cc2)C1` + CNCc1ccccc1-c1csc(C(C)Nc2nc(C)nc3cc(OC)c(OC)cc23)c1 has an IC50 (second compound 0.1 µM) of 2130 nM, an IC50 (second compound 0.316 µM) of 2260 nM and an IC50 (second compound 1 µM) of 2160 nM. For the same molecule, the IC50 (second compound 3.16 µM) was 90.7 nM, the IC50 (second compound 10 µM) was < 31.6 nM and the viability, T/C [5] was 120%. It also gave a viability, T/C [26] of 102%, a viability, T/C (second compound 0.1 µM, first compound 0.316 µM) of 107% and a viability, T/C (second compound 0.1 µM, first compound 1 µM) of 110%. For the same molecule, the viability, T/C (second compound 0.1 µM, first compound 3.16 µM) was 19.2%, the viability, T/C (second compound 0.1 µM, first compound 10 µM) was 1.52% and the viability, T/C [10] was 115%. It also gave a viability, T/C [27] of 117%, a viability, T/C (second compound 0.316 µM, first compound 0.316 µM) of 117% and a viability, T/C (second compound 0.316 µM, first compound 1 µM) of 119%. For the same molecule, the viability, T/C (second compound 0.316 µM, first compound 3.16 µM) was 22.1%, the viability, T/C (second compound 0.316 µM, first compound 10 µM) was 1.59% and the viability, T/C [15] was 126%. It also gave a viability, T/C [28] of 125%, a viability, T/C (second compound 1 µM, first compound 0.316 µM) of 112% and a viability, T/C (second compound 1 µM, first compound 1 µM) of 116%. It also gave a viability, T/C (second compound 1 µM, first compound 3.16 µM) of 17.2%, a viability, T/C (second compound 1 µM, first compound 10 µM) of 0.88% and a viability, T/C [20] of 80.2%. For the same molecule, the viability, T/C [29] was 44.8%, the viability, T/C (second compound 3.16 µM, first compound 0.316 µM) was 29.2% and the viability, T/C (second compound 3.16 µM, first compound 1 µM) was 7.62%. It also gave a viability, T/C (second compound 3.16 µM, first compound 3.16 µM) of 0.22%, a viability, T/C (second compound 3.16 µM, first compound 10 µM) of 0.13% and a viability, T/C [25] of 0.17%. It also gave a viability, T/C [30] of 0.16%, a viability, T/C (second compound 10 µM, first compound 0.316 µM) of 0.14% and a viability, T/C (second compound 10 µM, first compound 1 µM) of 0.12%. It also gave a viability, T/C (second compound 10 µM, first compound 3.16 µM) of 0.12% and a viability, T/C (second compound 10 µM, first compound 10 µM) of 0.2%.
